Values quoted from earlier work in patent US20260207703A1 (priority 2023, published 2026).

Details: in vivo

C=CCN1CC[C@]23c4c5ccc(O)c4O[C@H]2C(=O)CC[C@@]3(O)[C@H]1C5 [Naloxone]
half-life: ~ 1 hr.

C=C1CC[C@@]2(O)[C@H]3Cc4ccc(O)c5c4[C@@]2(CCN3CC2CC2)[C@H]1O5 [nalmefene, 17-cyclopropylmethyl-4,5α-epoxy-6-methylenemorphinan-3,14-diol]
half-life: 8 to 11 h
